Measurements: publication PMC10233823, “Conjugates of Aminoglycosides with Stapled Peptides as a Way to Target Antibiotic-Resistant Bacteria” (ACS Omega, 2023)
≈ marks a conversion by molar mass, not a printed value. Where two headings read alike, the source gives them in different places. Ends that are not written are not given here. Peptide text beside a SMILES is read from it. * marks the point of attachment. X2 = NC[C@@H]1O[C@H](O[C@H]2[C@@H](O)[C@H](O[C@@H]3[C@@H](O)[C@H](N)C[C@H](N)[C@H]3O[C@H]3O[C@H](CN)[C@@H](O)[C@H](O)[C@H]3N)O[C@@H]2CS*)[C@H](N)[C@@H](O)[C@@H]1O

What was measured:
S. aureus ATCC 29213 [1] = test: microbe, parasite or virus in culture; assay type: cell-based, Staphylococcus aureus; conditions: 24 h, 37 °C
Experimental: (§1) The antibacterial activity of the conjugates was assessed by determining their minimum inhibitory concentration (MIC) and minimum bactericidal concentration (MBC) against Gram-negative E. coli (K12 MG 1655 and WR 3551/98) and Gram-positive S. aureus (ATCC 29213 and ATCC BAA1720 MRSA) strains (Table 1, Figures S16–S23).
(§2) The MBC values were determined by diluting wells from the MIC experiment plate in fresh MHB medium. Dilutions of 10-, 100-, and 1000-times were prepared for the MIC well and up to two-folds higher than MIC concentrations of a given compound. Dilutions were made on a transparent flat-bottom 96-well plate (Nest), which was then sealed and incubated for 24 h, at 37 °C with shaking. The growth of a given sample well was compared with GC and SC controls.

[2] = tested on: S. aureus ATCC BAA1720 MRSA; test: microbe, parasite or virus in culture; assay type: cell-based, Staphylococcus aureus; conditions: MIC wells diluted in fresh MHB, 24 h, 37 °C
Experimental: as §1, §2

S. aureus ATCC 29213 [3] = test: Checkerboard synergy test; assay type: cell-based, Staphylococcus aureus; conditions: MIC not determined, tested range up to 128 μM
Experimental: The synergy between the compounds was assessed using the checkerboard method in a similar way as mentioned in our previous study.[79],[80] Bacteria were first cultured overnight in 2 mL of LB (VWR Chemicals) at 37 °C with shaking. Next, 20 μL of overnight culture was transferred into 2 mL of MHB medium and further cultured at 37 °C with shaking until the culture reached OD600 = 0.3. Subsequently, culture was diluted 1:200 in a fresh MHB medium, and aliquots of 90 μL were mixed with 10 μL of previously prepared dilutions of tested compounds in MHB on a transparent flat-bottom 96-well plate (Nest). The plate was then sealed with transparent adhesive foil (Titer-Tops) and incubated for 20 h, at 37 °C with shaking. Following incubation, optical density at 600 nm was measured using the Tecan Sunrise plate reader. Growth inhibition was determined by comparing the given sample with untreated culture (GC) with MHB alone (SC) as an additional reference. The FIC index was calculated for the first cell within each row and column where growth inhibition was observed. The following formula was used [drawing 1] Ca, Cb—concentration of the agent in combination, and MICa, MICb—MICs for agent a and agent b alone.
Then, the median FIC was determined for the entire checkerboard. In addition, the minimal and maximal values were distinguished (Table 2). […]

S. aureus ATCC 29213 [4] = test: microbe, parasite or virus in culture; assay type: cell-based, Staphylococcus aureus; conditions: 20 h, 37 °C with shaking, OD600
Experimental: as §1
(§3) The MIC values were determined as follows. Bacteria were first cultured overnight in 2 mL of lysogeny broth (LB, VWR Chemicals) at 37 °C with shaking. Next, 20 μL of overnight culture was transferred into 2 mL of […] (MHB, Difco) medium and further cultured at 37 °C with shaking until the culture reached OD600 = 0.3. Subsequently, the culture was diluted 1:100 in a fresh MHB medium, and aliquots of 50 μL were mixed with 50 μL of previously prepared dilutions of the tested compound in MHB on a transparent flat-bottom 96-well plate (Nest). The plate was then sealed with transparent foil (Titer-Tops) and incubated for 20 h, at 37 °C with shaking. Following incubation, optical density at 600 nm was measured using a Tecan Sunrise plate reader. Growth inhibition was determined by comparing the given sample with untreated culture (growth control—GC) with MHB alone (sterility control—SC) as an additional reference. The experiment was conducted in at least two biological replicates of two technical replicates each. Statistical significance was determined by the two-way ANOVA test using GraphPad Prism 9 software.

[5] = tested on: S. aureus ATCC BAA1720 MRSA; test: microbe, parasite or virus in culture; assay type: cell-based, Staphylococcus aureus; conditions: S. aureus ATCC BAA1720 MRSA (NEO-resistant), MHB, 20 h, 37 °C with shaking, OD600
Experimental: as §1, §3

E. coli WR 3551/98 [6] = test: microbe, parasite or virus in culture; assay type: cell-based, Escherichia coli; conditions: for MIC: E. coli WR 3551/98 (AMK-resistant), MHB, 20 h, 37 °C with shaking, OD600
Experimental: as §1, §3

E. coli WR 3551/98 [7] = test: microbe, parasite or virus in culture; assay type: cell-based, Escherichia coli; conditions: 24 h, 37 °C
Experimental: as §1, §2

E. coli K12 MG1655 [8] = test: microbe, parasite or virus in culture; assay type: cell-based, Escherichia coli; conditions: MIC wells diluted 10-, 100-, 1000-times in fresh MHB, 24 h, 37 °C, bactericidal if no growth at 100- and 1000-times dilutions
Experimental: as §1, §2

E. coli K12 MG1655 [9] = test: microbe, parasite or virus in culture; assay type: cell-based, Escherichia coli; conditions: MHB, 20 h, 37 °C with shaking, OD600, at least two biological replicates of two technical replicates
Experimental: as §1, §3

[10] = MIC wells diluted in fresh MHB, read-out: MBC
[11] = Staphylococcus aureus, ATCC29213, MIC wells diluted in fresh MHB, read-out: MBC
[12] = Staphylococcus aureus, ATCC29213, MHB
[13] = Escherichia coli, WR3551/98, MIC wells diluted in fresh MHB, read-out: MBC
[14] = Escherichia coli, read-out: MBC

Compound	MBC (S. aureus ATCC 29213 [1]; [10]) [µM]	MBC [2] [µM]	MIC (S. aureus ATCC 29213 [4]; MHB) [µM]	MIC [5] [µM]	MIC (E. coli WR 3551/98 [6]) [µM]	MBC (E. coli WR 3551/98 [7]; [10]) [µM]	MBC (E. coli K12 MG1655 [8]; read-out: MBC) [µM]	MIC (E. coli K12 MG1655 [9]) [µM]	further results
GLLKRIKTLL-NH2 (C-terminus assumed) [anoplin, reference compound]	>32	>32	>32	>32	>32	>32	≥32	–	growth inhibition concentration threshold (S. aureus ATCC 29213 [3]): higher than 128 μM
CC[C@H](C)[C@H](NC(=O)[C@H](CCCNC(=N)N)NC(=O)[C@H](CCCCN)NC(=O)[C@H](CC(C)C)NC(=O)[C@H](CC(C)C)NC(=O)CNC(=O)CCCCCCCCc1cn(C[C@H]2O[C@@H](O[C@@H]3[C@@H](O)[C@H](N)C[C@H](N)[C@H]3O[C@H]3O[C@H](CN)[C@@H](O)[C@H](O)[C@H]3N)[C@H](O)[C@@H]2O[C@H]2O[C@@H](CN)[C@@H](O)[C@H](O)[C@H]2N)nn1)C(=O)N[C@@H](CCCCN)C(=O)N[C@H](C(=O)N[C@@H](CC(C)C)C(=O)N[C@@H](CC(C)C)C(N)=O)[C@@H](C)O [NEO-anoplin] (HELM PEPTIDE1{[NC[C@@H]1O[C@H](O[C@H]2[C@@H](O)[C@H](O[C@@H]3[C@@H](O)[C@H](N)C[C@H](N)[C@H]3O[C@H]3O[C@H](CN)[C@@H](O)[C@H](O)[C@H]3N)O[C@@H]2Cn2cc(CCCCCCCCC(=O)[*:2])nn2)[C@H](N)[C@@H](O)[C@@H]1O].G.L.L.K.R.I.K.T.L.L.[am]}$$$$V2.0)	–	32 (≈ 62.6 µg/mL)	16 (≈ 31.3 µg/mL)	32 (≈ 62.6 µg/mL)	16 (≈ 31.3 µg/mL)	16 (≈ 31.3 µg/mL)	–	8 (≈ 15.7 µg/mL)	MBC (S. aureus ATCC 29213 [1]; MIC wells diluted in fresh MHB): 16 to 32 µM; MBC (E. coli K12 MG1655 [8]): 8 to 16 µM
CC[C@H](C)[C@H](NC(=O)[C@H](CCCNC(=N)N)NC(=O)[C@H](CCCCN)NC(=O)[C@H](CC(C)C)NC(=O)[C@H](CC(C)C)NC(=O)CNC(=O)CCCCCCCCc1cn(C[C@H]2O[C@H](O[C@@H]3[C@@H](O)[C@H](O[C@H]4O[C@H](CN)[C@@H](O)[C@H](O)[C@H]4O)[C@@H](N)C[C@H]3NC(=O)[C@@H](O)CCN)[C@H](O)[C@@H](N)[C@@H]2O)nn1)C(=O)N[C@@H](CCCCN)C(=O)N[C@H](C(=O)N[C@@H](CC(C)C)C(=O)N[C@@H](CC(C)C)C(N)=O)[C@@H](C)O [AMK-anoplin] (HELM PEPTIDE1{[NCC[C@H](O)C(=O)N[C@@H]1C[C@H](N)[C@@H](O[C@H]2O[C@H](CN)[C@@H](O)[C@H](O)[C@H]2O)[C@H](O)[C@H]1O[C@H]1O[C@H](Cn2cc(CCCCCCCCC(=O)[*:2])nn2)[C@@H](O)[C@H](N)[C@H]1O].G.L.L.K.R.I.K.T.L.L.[am]}$$$$V2.0)	>32	>32	32 (≈ 61.7 µg/mL)	>32	16 (≈ 30.9 µg/mL)	–	16 (≈ 30.9 µg/mL)	16 (≈ 30.9 µg/mL)	MBC (E. coli WR 3551/98 [7]; MIC wells diluted in fresh MHB): 16 to 32 µM
CC[C@H](C)[C@H](NC(=O)[C@H](CCCNC(=N)N)NC(=O)[C@H](CCCCN)NC(=O)[C@H](CC(C)C)NC(=O)[C@H](CC(C)C)NC(=O)CNC(=O)[C@@H](N)CSSC[C@H]1O[C@@H](O[C@@H]2[C@@H](O)[C@H](N)C[C@H](N)[C@H]2O[C@H]2O[C@H](CN)[C@@H](O)[C@H](O)[C@H]2N)[C@H](O)[C@@H]1O[C@H]1O[C@@H](CN)[C@@H](O)[C@H](O)[C@H]1N)C(=O)N[C@@H](CCCCN)C(=O)N[C@H](C(=O)N[C@@H](CC(C)C)C(=O)N[C@@H](CC(C)C)C(N)=O)[C@@H](C)O [NEO-SS-anoplin] (H-C(X2)GLLKRIKTLL-NH2)	8 (≈ 15.1 µg/mL)	>32	4 (≈ 7.54 µg/mL)	>32	8 (≈ 15.1 µg/mL)	16 (≈ 30.2 µg/mL)	8 (≈ 15.1 µg/mL)	8 (≈ 15.1 µg/mL)	–
CC[C@H](C)[C@H](NC(=O)[C@H](CCCNC(=N)N)NC(=O)[C@H](CCCCN)NC(=O)[C@H](CC(C)C)NC(=O)[C@H](CC(C)C)NC(=O)CNC(=O)[C@@H](N)CSSC[C@H](N)C(=O)NCC(=O)N[C@@H](CC(C)C)C(=O)N[C@@H](CC(C)C)C(=O)N[C@@H](CCCCN)C(=O)N[C@@H](CCCNC(=N)N)C(=O)N[C@H](C(=O)N[C@@H](CCCCN)C(=O)N[C@H](C(=O)N[C@@H](CC(C)C)C(=O)N[C@@H](CC(C)C)C(N)=O)[C@@H](C)O)[C@@H](C)CC)C(=O)N[C@@H](CCCCN)C(=O)N[C@H](C(=O)N[C@@H](CC(C)C)C(=O)N[C@@H](CC(C)C)C(N)=O)[C@@H](C)O [anoplin-SS-anoplin] (HELM PEPTIDE1{C.G.L.L.K.R.I.K.T.L.L.[am]}|PEPTIDE2{C.G.L.L.K.R.I.K.T.L.L.[am]}$PEPTIDE1,PEPTIDE2,1:R3-1:R3$$$V2.0)	32 (≈ 80.4 µg/mL)	32 (≈ 80.4 µg/mL)	16 (≈ 40.2 µg/mL)	16 (≈ 40.2 µg/mL)	1 (≈ 2.51 µg/mL)	2 (≈ 5.02 µg/mL)	8 (≈ 20.1 µg/mL)	4 (≈ 10 µg/mL)	MIC enhancement compared to anoplin monomer (E. coli WR 3551/98 [6]; E. coli WR 3551/98): 32 fold
NC[C@@H]1O[C@H](O[C@H]2[C@@H](O)[C@H](O[C@@H]3[C@@H](O)[C@H](N)C[C@H](N)[C@H]3O[C@H]3O[C@H](CN)[C@@H](O)[C@H](O)[C@H]3N)O[C@@H]2CO)[C@H](N)[C@@H](O)[C@@H]1O [neomycin (NEO), neomycin, reference compound]	–	–	–	–	–	–	–	–	MBC (S. aureus ATCC 29213 [1]; [11]): 2 µM (≈ 1.23 µg/mL); MBC ([2]; Staphylococcus aureus): > 32 µM; MIC (S. aureus ATCC 29213 [4]; [12]): 1 µM (≈ 0.615 µg/mL); MIC ([5]; Staphylococcus aureus): > 32 µM; MIC (E. coli WR 3551/98 [6]; Escherichia coli, WR3551/98): 4 µM (≈ 2.46 µg/mL); MIC (E. coli K12 MG1655 [9]; Escherichia coli): 4 µM (≈ 2.46 µg/mL); MBC (E. coli WR 3551/98 [7]; [13]): 8 µM (≈ 4.92 µg/mL); MBC (E. coli K12 MG1655 [8]; [14]): 4 µM (≈ 2.46 µg/mL)
NCC[C@H](O)C(=O)N[C@@H]1C[C@H](N)[C@@H](O[C@H]2O[C@H](CN)[C@@H](O)[C@H](O)[C@H]2O)[C@H](O)[C@H]1O[C@H]1O[C@H](CO)[C@@H](O)[C@H](N)[C@H]1O [amikacin (AMK), amikacin, reference compound]	–	–	–	–	>32	–	–	–	MBC (S. aureus ATCC 29213 [1]; [11]): 8 µM (≈ 4.68 µg/mL); MBC ([2]; Staphylococcus aureus): ≥ 32 µM; MIC (S. aureus ATCC 29213 [4]; [12]): 8 µM (≈ 4.68 µg/mL); MIC ([5]; Staphylococcus aureus): 32 µM (≈ 18.7 µg/mL); MIC (E. coli WR 3551/98 [6]; Escherichia coli, WR3551/98): > 32 µM; MIC (E. coli K12 MG1655 [9]; Escherichia coli): 4 µM (≈ 2.34 µg/mL); MBC (E. coli WR 3551/98 [7]; [13]): > 32 µM; MBC (E. coli K12 MG1655 [8]; [14]): 8 to 16 µM (≈ 4.68 to 9.37 µg/mL)
